In patent publication US20250024870A1, “NATURAL SUGAR-FREE SYRUP, AND PRODUCTION METHOD THEREOF” (CJ CHEILJEDANG CORPORATION, priority 2021, published 2025):

Columns and labels:
Assay type in all cases: cell-based
[1] = tested on: General bacteria (T.A.B), bacteria derived from flavor syrup; experiment: Minimum inhibitory concentration (MIC), paper disc diffusion method, general bacteria; conditions: legend not given
Method: (§1) [table] The minimum inhibitory concentration (MIC) was conducted to confirm the antibacterial activity of each antibacterial agent and the minimum concentration showing antibacterial activity against the target strain, and the paper disc diffusion method was used as the experimental method. […] It was confirmed that if the bacteria had antibacterial activity, the proliferation of bacteria was inhibited as a clear zone was created around the paper.

Fungi (Asp. niger) [2] = experiment: Minimum inhibitory concentration (MIC), paper disc diffusion method, fungi; conditions: legend not given
Method: as §1

Spores (B. subtilis) [3] = experiment: Minimum inhibitory concentration (MIC), paper disc diffusion method, spores; conditions: legend not given
Method: as §1

[4] = tested on: General bacteria, bacteria derived from flavor syrup; experiment: Microbial challenge test (MCT) in sucrose-zero vanilla syrup, general bacteria; conditions: for general bacteria count: single concentration as printed in the row; for general bacteria count, Max.: Max. concentration of agent; for general bacteria count, Min.: Min. concentration of agent
Method: (§2) Subsequently, the microbial challenge test (MCT) was conducted in the following order. The experiment was applied to the vanilla syrup, which is the representative among the sucrose syrup, the vanilla syrup, and the red grapefruit syrup, and the applied strains and analysis conditions are shown in Table 14.
(§3) The microbial challenge test (MCT) experiment conditions are as follows: 1) prepare a sucrose-zero vanilla syrup; 2) prepare general bacteria/fungi/spores that have completed proliferation; 3) inject 10^3 cfu/ml of bacteria into a sterilized glass container (100 ml); 4) fill 3) with sucrose-zero vanilla syrup at the filling temperature (80° C. or higher); 5) let it stand after cooling; 6) one day after the cooling of the stationary sample was completed, culture was performed on a weekly basis; and 7) verify the trend of bacterial proliferation or decline for each natural antibacterial agent for 4 weeks.

Fungi (Asp. niger) [5] = experiment: Microbial challenge test (MCT) in sucrose-zero vanilla syrup, fungi; conditions: for fungi count: single concentration as printed in the row; for fungi count, Max.: Max. concentration of agent; for fungi count, Min.: Min. concentration of agent
Method: as §2, §3

Spores (B. subtilis) [6] = experiment: Microbial challenge test (MCT) in sucrose-zero vanilla syrup, spores; conditions: for spores count: single concentration as printed in the row; for spores count, Max.: Max. concentration of agent; for spores count, Min.: Min. concentration of agent
Method: as §2, §3

[7] = immediately after inoculation of target bacteria

C/C=C/C=C/C(=O)[O-].[K+] [Potassium sorbate, reference compound]
Antibacterial activity (clear zone), general bacteria (T.A.B) ([1]; 300 ppm): ∘ | Antibacterial activity (clear zone), general bacteria (T.A.B) ([1]; 400 ppm): ∘ | Antibacterial activity (clear zone), general bacteria (T.A.B) ([1]; 500 ppm): ∘ | Antibacterial activity (clear zone), general bacteria (T.A.B) ([1]; 1,000 ppm): ∘ | Antibacterial activity (clear zone), fungi (Fungi (Asp. niger) [2]; 300 ppm): ∘ | Antibacterial activity (clear zone), fungi (Fungi (Asp. niger) [2]; 400 ppm): ∘ | Antibacterial activity (clear zone), fungi (Fungi (Asp. niger) [2]; 500 ppm): ∘ | Antibacterial activity (clear zone), fungi (Fungi (Asp. niger) [2]; 1,000 ppm): ∘ | Antibacterial activity (clear zone), spores (Spores (B. subtilis) [3]; 300 ppm): ∘ | Antibacterial activity (clear zone), spores (Spores (B. subtilis) [3]; 400 ppm): ∘ | Antibacterial activity (clear zone), spores (Spores (B. subtilis) [3]; 500 ppm): ∘ | Antibacterial activity (clear zone), spores (Spores (B. subtilis) [3]; 1,000 ppm): ∘ | general bacteria count ([4]; after 1 week): 93 | general bacteria count ([4]; after 2 weeks): 83 | general bacteria count ([4]; after 3 weeks): 80 | general bacteria count ([4]; after 4 weeks): 78 | general bacteria count [4, 7]: 98 | fungi count (Fungi (Asp. niger) [5]; after 1 week): 63 | fungi count (Fungi (Asp. niger) [5]; after 2 weeks): 66 | fungi count (Fungi (Asp. niger) [5]; after 3 weeks): 60 | fungi count (Fungi (Asp. niger) [5]; after 4 weeks): 58 | fungi count (Fungi (Asp. niger) [5]; [7]): 68 | spores count (Spores (B. subtilis) [6]; after 1 week): 873 | spores count (Spores (B. subtilis) [6]; after 2 weeks): 876 | spores count (Spores (B. subtilis) [6]; after 3 weeks): 850 | spores count (Spores (B. subtilis) [6]; after 4 weeks): 860 | spores count (Spores (B. subtilis) [6]; [7]): 880

E-polylisine [E-polylysine]
Antibacterial activity (clear zone), general bacteria (T.A.B) ([1]; 200 ppm): ∘ | Antibacterial activity (clear zone), general bacteria (T.A.B) ([1]; 300 ppm): ∘ | Antibacterial activity (clear zone), general bacteria (T.A.B) ([1]; 400 ppm): ∘ | Antibacterial activity (clear zone), general bacteria (T.A.B) ([1]; 500 ppm): ∘ | Antibacterial activity (clear zone), general bacteria (T.A.B) ([1]; 1,000 ppm): ∘ | Antibacterial activity (clear zone), fungi (Fungi (Asp. niger) [2]; 400 ppm): ∘ | Antibacterial activity (clear zone), fungi (Fungi (Asp. niger) [2]; 500 ppm): ∘ | Antibacterial activity (clear zone), fungi (Fungi (Asp. niger) [2]; 1,000 ppm): ∘ | Antibacterial activity (clear zone), spores (Spores (B. subtilis) [3]; 400 ppm): ∘ | Antibacterial activity (clear zone), spores (Spores (B. subtilis) [3]; 500 ppm): ∘ | Antibacterial activity (clear zone), spores (Spores (B. subtilis) [3]; 1,000 ppm): ∘ | general bacteria count, Max. ([4]; after 1 week): 126 | general bacteria count, Min. ([4]; after 1 week): 129 | general bacteria count, Max. ([4]; after 2 weeks): 115 | general bacteria count, Min. ([4]; after 2 weeks): 120 | general bacteria count, Max. ([4]; after 3 weeks): 110 | general bacteria count, Min. ([4]; after 3 weeks): 120 | general bacteria count, Max. ([4]; after 4 weeks): 108 | general bacteria count, Min. ([4]; after 4 weeks): 110 | general bacteria count, Max. [4, 7]: 129 | general bacteria count, Min. [4, 7]: 132 | fungi count, Max. (Fungi (Asp. niger) [5]; after 1 week): 135 | fungi count, Min. (Fungi (Asp. niger) [5]; after 1 week): 147 | fungi count, Max. (Fungi (Asp. niger) [5]; after 2 weeks): 130 | fungi count, Min. (Fungi (Asp. niger) [5]; after 2 weeks): 137 | fungi count, Max. (Fungi (Asp. niger) [5]; after 3 weeks): 128 | fungi count, Min. (Fungi (Asp. niger) [5]; after 3 weeks): 130 | fungi count, Max. (Fungi (Asp. niger) [5]; after 4 weeks): 125 | fungi count, Min. (Fungi (Asp. niger) [5]; after 4 weeks): 128 | fungi count, Max. (Fungi (Asp. niger) [5]; [7]): 138 | fungi count, Min. (Fungi (Asp. niger) [5]; [7]): 150 | spores count, Max. (Spores (B. subtilis) [6]; after 1 week): 720 | spores count, Min. (Spores (B. subtilis) [6]; after 1 week): 870 | spores count, Max. (Spores (B. subtilis) [6]; after 2 weeks): 773 | spores count, Min. (Spores (B. subtilis) [6]; after 2 weeks): 850 | spores count, Max. (Spores (B. subtilis) [6]; after 3 weeks): 780 | spores count, Min. (Spores (B. subtilis) [6]; after 3 weeks): 800 | spores count, Max. (Spores (B. subtilis) [6]; after 4 weeks): 720 | spores count, Min. (Spores (B. subtilis) [6]; after 4 weeks): 830 | spores count, Max. (Spores (B. subtilis) [6]; [7]): 720 | spores count, Min. (Spores (B. subtilis) [6]; [7]): 880
